According to PMC9562916, “Investigation of the Phenolic Component Bioavailability Using the In Vitro Digestion/Caco-2 Cell Model, as well as the Antioxidant Activity in Chinese Red Wine” (Foods, 2022):
Like-named read-outs stand apart in the source and are kept apart here. Marks after values point to notes of the source that are not given here.

How the values were obtained:
[1] = PC content of red wine before and after in vitro simulated gastrointestinal digestion (HPLC); format: in vitro ADME; conditions: after simulated gastrointestinal digestion; for PC Contents, Cabernet, After Digestion: Cabernet red wine; for PC Contents, Tianzhu, After Digestion: Tianzhu red wine
Experimental: The digestion procedure was carried out by adapting the method of Brodkorb et al. and Gómez et al.. […] One milliliter (50 units/mL) of porcine amylase was prepared in a 15 mM Na₃PO₄ buffer solution (pH adjusted to 6.8) containing 1.5 mM CaCl2, and it was added to the red wine solution. After 5 min, 4.5 mL of 0.12 M HCl was added to the mixture to adjust the pH to 2.4. One milliliter of porcine pepsin (0.02 mg/L) was dissolved in a 20 mM HCl solution. The mixture was then maintained at 37 °C for 120 min. The digestion mixture was then centrifuged at 8000× g for 15 min to obtain samples from the gastric digestion phase. […] The mixture was incubated at pH 6.5 at 37 °C for 3 h before being centrifuged. The extracts of the intestinal phase were the supernatants. The same operation was done three times, and each sample was stored in a refrigerator (−20 °C) immediately for further analysis.
The Pati method was adopted, with slight modifications, to measure the content of the PCs. The Agilent 1100 series HPLC instrument was used; it was equipped with a degasser, quaternary pump solvent delivery, a DAD system, and a single quadrupole mass detector coupled with an electrospray ionization LC–MS interface. Briefly, th samples were injected into a Zorbax SB C18 reversed-phase column (5 µm,150 × 2.1 mm, Agilent Technologies, Santa Clara, CA, USA) using an autosampler after filtering through 0.45 µm cellulose acetate syringe filters. The column temperature was kept at 30 °C, the injection volume was 10 µL, and the flow rate was 0.3 mL/min. The eluents were water and formic acid in a 99:1 (v/v) (A) ratio and 100% acetonitrile (B). […] The MS configuration was as follows: ESI, negative ion mode, nebulizer pressure of 30 psi, a dry gas flow rate of 10 mL/min, dry gas temperature of 350 °C, and a scan rate of 100~1200 m/z. PCs were determined according to their retention times, UV/VIS spectra, and high-resolution MS spectra, in addition to a comparison with the standards. […] Putative annotations were made using spectral features and literature information on the chromatographic properties and mass spectra records from the metabolome database. A standard curve was drawn using methanol solutions with different concentrations as the standards. The limits of detection and quantitation were calculated according to the signal-to-noise ratio (limit of detection: signal-to-noise ratio ≥ 3; limit of quantitation: signal-to-noise ratio ≥ 10). […] PCs All of the samples were determined in triplicate.

[2] = Caco-2 transepithelial transport assay of digested red wine; format: in vitro ADME, human; conditions: human
Experimental: (§1) Caco-2 cells were inoculated following the method of Hubatsch et al. […] Briefly, a 5% v/v of CO2 incubator at 37 °C was used to house the cells. […] Caco-2 cells were sub-cultured when they reached 80-90% of the adherent growth by treating them with a 0.05% v/v of trypsin-EDTA solution. The culture between passages 35 and 40 was used for the following experiment. Transport experiments were performed according to the method of Wu et al. with slight modifications. First, 1.0 × 10^5 Caco-2 cells were inoculated onto 12 mm transparent cell culture plates (Transwell). Media were carefully injected into the apical (0.5 mL) and basolateral (1.5 mL) sides of the Transwell plates. The cell culture medium had to be replaced every other day until the cells formed a monolayer. The integrity and transport ability of the Caco-2 cell monolayer were evaluated by measuring the trans-epithelial electrical resistance (TEER) with a MilliCell voltammeter (Millicell ERS-2, Merck Millipore, Billerica, MA, USA). […] When the cell activity exceeded 0.9, a transport experiment was conducted. The apical side was injected with a digested red wine sample (0.5 mL) and was thoroughly mixed with […] Balanced Salt Solution (HBSS) buffer solution. […] The cells were then cultured in a 37 °C, 5% CO2 incubator. Then, 0.25 mL samples were separately taken from the basolateral side of the monolayer. An equal volume of HBSS buffer was then added every half hour from the beginning of the culture until the end of the culture at 6 h. The collected samples were subsequently filtered and placed in the sample bottle for further HPLC analysis. This experiment was repeated several times to collect enough samples for the next antioxidant test. […] The Agilent 1100 series HPLC instrument was used; it was equipped with a degasser, quaternary pump solvent delivery, a DAD system, and a single quadrupole mass detector coupled with an electrospray ionization LC-MS interface. […] The column temperature was kept at 30 °C, the injection volume was 10 μL, and the flow rate was 0.3 mL/min. The eluents were water and formic acid in a 99:1 (v/v) (A) ratio and 100% acetonitrile (B). The gradient elution procedure was as follows: (1) 3% B solvent at 0 min, (2) 3 to 16% B solvent at 10 min, (3) 16 to 20% B solvent at 30 min, and (4) 20% B solvent maintained until the procedure was completed. The MS configuration was as follows: ESI, negative ion mode, nebulizer pressure of 30 psi, a dry gas flow rate of 10 mL/min, dry gas temperature of 350 °C, and a scan rate of 100~1200 m/z. PCs were determined according to their retention times, UV/VIS spectra, and high-resolution MS spectra, in addition to a comparison with the standards. […] If a standard was unavailable, a structurally related compound was used. Putative annotations were made using spectral features and literature information on the chromatographic properties and mass spectra records from the metabolome database. A standard curve was drawn using methanol solutions with different concentrations as the standards. […] PCs All of the samples were determined in triplicate.

Caco-2 cell monolayer = experiment: as above; format: in vitro ADME, human; conditions: digested sample, basolateral side of Caco-2 monolayer; for PC Contents, Cabernet, Transmembrane: Cabernet red wine; for PC Contents, Helanshan, Transmembrane: Helanshan red wine; for PC Contents, Tianzhu, Transmembrane: Tianzhu red wine
Experimental: as §1

Row | PC Contents, Helanshan, After Digestion ([1]; Helanshan red wine) | Papp at 6 h ([2]; Caco-2, apical to basolateral, digested Cabernet red wine, read-out: Apparent Permeability Coefficients, Cabernet) [×10⁻⁶ cm/s] | Papp at 6 h ([2]; Caco-2, apical to basolateral, digested Helanshan red wine, read-out: Apparent Permeability Coefficients, Helanshan) [×10⁻⁶ cm/s] | Papp at 6 h ([2]; Caco-2, apical to basolateral, digested Tianzhu red wine, read-out: Apparent Permeability Coefficients, Tianzhu) [×10⁻⁶ cm/s] | Structure (SMILES) | PC Contents, Cabernet, After Digestion [1] | PC Contents, Tianzhu, After Digestion [1] | PC Contents, Cabernet, Transmembrane (Caco-2 cell monolayer) | PC Contents, Helanshan, Transmembrane (Caco-2 cell monolayer) | PC Contents, Tianzhu, Transmembrane (Caco-2 cell monolayer) | bioavailability ([2]; Caco-2) [%] | Papp at 6 h ([2]; Caco-2, Apparent Permeability Coefficients, Cabernet) [×10⁻⁶ cm/s] | Papp at 6 h ([2]; Caco-2, Apparent Permeability Coefficients, Helanshan) [×10⁻⁶ cm/s] | Papp at 6 h ([2]; Caco-2, Apparent Permeability Coefficients, Tianzhu) [×10⁻⁶ cm/s]
1 | 30.18 ± 0.94 ^b mg/L | 17.4 ± 2.73 | 17.9 ± 2.88 | 18.3 ± 3.02 | CCOC(=O)c1cc(O)c(O)c(O)c1 [Ethyl gallate] | 38.42 ± 1.88 ^b mg/L | 40.83 ± 1.51 ^b mg/L | 10.70 ± 0.33 ^a mg/L | 8.64 ± 0.36 ^a mg/L | 8.13 ± 0.28 ^a mg/L | – | – | – | –
2 | – | – | – | – | O=C(O)c1cc(O)c(O)c(O)c1 [Gallic acid] | 9.08 ± 0.44 ^b mg/L | 6.91 ± 0.26 ^b mg/L | 4.61 ± 0.23 ^a mg/L | 2.53 ± 0.14 ^a mg/L | 1.38 ± 0.05 ^a mg/L | 24 | 31.7 ± 3.82 | 30.9 ± 3.99 | 32.8 ± 4.13
